Experimental data from US10344060B2 (priority 2013, dated 2019).

Key:
Experiment in all cases: cell-based
[1] = target: mNav1.7 (Mus musculus, UniProt Q62205); conditions: for IC50: PatchXpress, tonic block, mouse Nav1.7, read-out: PX mNav1.7 Tonic IC50; for mNav1.7/hNav1.7: ratio of PX tonic IC50, mouse Nav1.7 over human Nav1.7
[2] = target: rNav1.7 (Rattus norvegicus, UniProt O08562)
[3] = target: hNav1.7 (Homo sapiens, UniProt Q15858); format: cell-based; conditions: PatchXpress, tonic block, human Nav1.7; read-out: PX hNav1.7 Tonic IC50

Chain of mNav1.7 (Q62205 whole entry): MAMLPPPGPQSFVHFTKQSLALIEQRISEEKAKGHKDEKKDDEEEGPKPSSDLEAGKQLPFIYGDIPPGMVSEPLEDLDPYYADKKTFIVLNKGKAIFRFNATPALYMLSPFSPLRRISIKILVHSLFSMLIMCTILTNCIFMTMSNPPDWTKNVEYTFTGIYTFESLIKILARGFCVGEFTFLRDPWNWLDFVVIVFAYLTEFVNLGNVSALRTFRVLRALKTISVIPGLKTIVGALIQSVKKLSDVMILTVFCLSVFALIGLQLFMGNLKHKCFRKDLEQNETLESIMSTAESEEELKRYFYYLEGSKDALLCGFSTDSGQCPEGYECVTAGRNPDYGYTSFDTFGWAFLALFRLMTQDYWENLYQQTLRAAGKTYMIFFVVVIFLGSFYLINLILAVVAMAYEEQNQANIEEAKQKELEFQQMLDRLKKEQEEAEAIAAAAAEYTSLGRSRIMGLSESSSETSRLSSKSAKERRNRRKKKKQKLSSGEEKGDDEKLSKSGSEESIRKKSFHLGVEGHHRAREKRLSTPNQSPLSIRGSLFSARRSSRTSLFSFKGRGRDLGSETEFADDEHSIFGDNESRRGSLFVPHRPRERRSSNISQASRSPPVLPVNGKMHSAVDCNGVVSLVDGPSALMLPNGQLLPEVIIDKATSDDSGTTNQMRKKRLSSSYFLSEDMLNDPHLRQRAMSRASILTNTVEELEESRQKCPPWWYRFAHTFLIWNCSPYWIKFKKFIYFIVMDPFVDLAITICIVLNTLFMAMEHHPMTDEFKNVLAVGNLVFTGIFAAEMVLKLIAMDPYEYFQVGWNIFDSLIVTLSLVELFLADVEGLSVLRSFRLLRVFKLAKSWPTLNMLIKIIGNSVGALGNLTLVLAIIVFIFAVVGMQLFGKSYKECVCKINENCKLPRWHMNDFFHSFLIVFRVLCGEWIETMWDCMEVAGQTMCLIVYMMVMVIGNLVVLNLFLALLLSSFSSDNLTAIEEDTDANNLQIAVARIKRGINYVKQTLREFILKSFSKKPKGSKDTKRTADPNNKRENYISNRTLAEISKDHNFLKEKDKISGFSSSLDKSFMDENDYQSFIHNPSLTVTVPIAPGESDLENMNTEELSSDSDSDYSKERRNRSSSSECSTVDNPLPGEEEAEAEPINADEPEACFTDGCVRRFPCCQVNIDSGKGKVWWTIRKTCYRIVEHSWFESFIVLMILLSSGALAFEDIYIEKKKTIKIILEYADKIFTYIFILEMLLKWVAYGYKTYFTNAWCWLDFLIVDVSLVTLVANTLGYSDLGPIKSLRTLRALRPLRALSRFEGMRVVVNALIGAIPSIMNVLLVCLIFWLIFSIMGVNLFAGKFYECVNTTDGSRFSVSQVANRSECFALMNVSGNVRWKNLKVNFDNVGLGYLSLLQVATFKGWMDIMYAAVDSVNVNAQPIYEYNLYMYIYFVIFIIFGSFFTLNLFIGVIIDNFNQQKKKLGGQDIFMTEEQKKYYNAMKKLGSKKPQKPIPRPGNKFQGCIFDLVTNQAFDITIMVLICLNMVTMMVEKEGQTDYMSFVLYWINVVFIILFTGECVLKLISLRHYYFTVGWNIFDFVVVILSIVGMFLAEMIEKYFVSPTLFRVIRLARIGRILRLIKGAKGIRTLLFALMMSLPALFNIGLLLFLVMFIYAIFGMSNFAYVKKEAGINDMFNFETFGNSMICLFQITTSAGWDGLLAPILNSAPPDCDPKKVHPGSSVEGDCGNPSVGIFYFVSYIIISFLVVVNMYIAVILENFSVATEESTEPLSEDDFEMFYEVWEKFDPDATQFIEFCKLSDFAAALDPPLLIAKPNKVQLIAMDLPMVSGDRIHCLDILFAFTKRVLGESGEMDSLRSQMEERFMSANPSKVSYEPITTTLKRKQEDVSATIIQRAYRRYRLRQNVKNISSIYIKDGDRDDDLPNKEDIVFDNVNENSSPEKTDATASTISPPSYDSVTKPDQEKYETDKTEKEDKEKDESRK
Chain of rNav1.7 (O08562 whole entry): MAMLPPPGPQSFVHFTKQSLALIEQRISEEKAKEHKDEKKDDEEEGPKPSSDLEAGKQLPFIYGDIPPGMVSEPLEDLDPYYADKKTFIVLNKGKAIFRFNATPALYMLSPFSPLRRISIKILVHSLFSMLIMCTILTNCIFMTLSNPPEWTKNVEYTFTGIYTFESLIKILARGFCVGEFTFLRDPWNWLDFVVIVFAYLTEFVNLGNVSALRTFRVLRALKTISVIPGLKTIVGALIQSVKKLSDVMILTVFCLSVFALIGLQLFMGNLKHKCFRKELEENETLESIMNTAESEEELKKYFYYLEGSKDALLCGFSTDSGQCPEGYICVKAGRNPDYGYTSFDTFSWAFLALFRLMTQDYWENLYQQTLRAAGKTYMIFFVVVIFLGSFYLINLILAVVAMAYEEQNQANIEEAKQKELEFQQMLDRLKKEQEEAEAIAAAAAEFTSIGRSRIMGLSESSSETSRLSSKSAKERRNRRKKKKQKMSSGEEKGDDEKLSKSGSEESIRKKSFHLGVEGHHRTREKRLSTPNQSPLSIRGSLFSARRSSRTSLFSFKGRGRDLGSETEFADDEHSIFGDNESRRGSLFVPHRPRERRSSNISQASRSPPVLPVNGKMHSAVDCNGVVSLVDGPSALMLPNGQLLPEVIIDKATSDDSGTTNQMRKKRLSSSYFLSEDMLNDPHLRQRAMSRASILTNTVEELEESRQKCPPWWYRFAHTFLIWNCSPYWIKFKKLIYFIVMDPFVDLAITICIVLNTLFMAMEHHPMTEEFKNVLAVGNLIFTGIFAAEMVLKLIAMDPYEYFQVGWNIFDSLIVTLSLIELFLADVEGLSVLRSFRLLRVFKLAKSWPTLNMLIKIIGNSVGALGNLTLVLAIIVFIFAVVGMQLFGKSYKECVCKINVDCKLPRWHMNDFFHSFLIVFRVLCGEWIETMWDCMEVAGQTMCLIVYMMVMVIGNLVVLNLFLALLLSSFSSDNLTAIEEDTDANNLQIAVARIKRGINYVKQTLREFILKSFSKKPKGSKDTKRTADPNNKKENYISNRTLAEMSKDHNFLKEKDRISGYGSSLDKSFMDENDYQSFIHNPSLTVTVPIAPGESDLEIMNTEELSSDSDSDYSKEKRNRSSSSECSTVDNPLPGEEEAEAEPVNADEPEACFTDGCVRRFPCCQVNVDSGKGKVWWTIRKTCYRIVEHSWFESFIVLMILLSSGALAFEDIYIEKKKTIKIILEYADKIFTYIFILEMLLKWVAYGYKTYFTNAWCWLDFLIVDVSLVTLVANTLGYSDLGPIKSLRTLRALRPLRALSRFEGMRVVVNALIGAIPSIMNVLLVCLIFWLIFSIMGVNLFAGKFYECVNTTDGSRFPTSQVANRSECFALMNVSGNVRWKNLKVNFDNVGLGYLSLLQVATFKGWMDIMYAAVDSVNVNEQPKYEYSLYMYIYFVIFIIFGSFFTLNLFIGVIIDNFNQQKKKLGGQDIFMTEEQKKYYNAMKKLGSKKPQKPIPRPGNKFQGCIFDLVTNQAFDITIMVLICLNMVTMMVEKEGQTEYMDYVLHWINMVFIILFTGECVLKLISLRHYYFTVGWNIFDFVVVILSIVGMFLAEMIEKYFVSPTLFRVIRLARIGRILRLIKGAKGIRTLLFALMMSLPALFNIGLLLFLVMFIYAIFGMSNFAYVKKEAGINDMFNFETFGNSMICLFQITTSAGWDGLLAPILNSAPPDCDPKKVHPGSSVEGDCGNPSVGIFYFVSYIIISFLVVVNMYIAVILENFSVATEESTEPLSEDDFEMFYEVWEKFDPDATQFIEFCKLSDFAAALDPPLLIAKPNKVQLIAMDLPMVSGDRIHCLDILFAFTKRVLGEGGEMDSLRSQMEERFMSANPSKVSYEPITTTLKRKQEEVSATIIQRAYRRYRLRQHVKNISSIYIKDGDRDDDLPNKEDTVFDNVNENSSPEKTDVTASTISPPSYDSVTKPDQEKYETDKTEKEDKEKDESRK

| Structure (SMILES) | IC50 [1] [nM] | mNav1.7/hNav1.7 [1] | IC50 ([2]; PatchXpress, tonic block, rat Nav1.7, read-out: PX rNav1.7 Tonic IC50) [nM] | rNav1.7/hNav1.7 ([2]; ratio of PX tonic IC50, rat Nav1.7 over human Nav1.7) | IC50 [3] [nM] |
| --- | --- | --- | --- | --- | --- |
| C#CC[C@H](N)C(=O)N[C@@H](Cc1ccc(O)cc1)C(=O)N[C@H]1CSSC[C@@H]2NC(=O)[C@@H]3CSSC[C@@H](C(=O)N[C@@H](CCCNC(=N)N)C(=O)N[C@@H](CCCCN)C(=O)N[C@@H](CCC(=O)O)C(=O)N[C@@H](Cc4ccccc4)C(N)=O)NC(=O)[C@H](Cc4c[nH]c5ccccc45)NC(=O)[C@H](CC(C)C)NC(=O)[C@H](CCCCN)NC(=O)[C@H](CSSC[C@H](NC(=O)[C@H]([C@@H](C)O)NC(=O)[C@H](Cc4c[nH]c5ccccc45)NC(=O)[C@H](CCCC)NC(=O)[C@H](Cc4c[nH]c5ccccc45)NC(=O)[C@H](CCCCN)NC(=O)[C@H](CCC(N)=O)NC1=O)C(=O)N[C@@H](CC(=O)O)C(=O)N[C@@H](CO)C(=O)N[C@@H](CCCCN)C(=O)N[C@@H](CCCNC(=N)N)C(=O)N[C@@H](C)C(=O)N3)NC(=O)[C@H](CCCNC(=N)N)NC(=O)[C@H](CC(C)C)NC(=O)CNC(=O)[C@H](CCC(=O)O)NC2=O [Pra-[Nle6; Glu28; Phe29]JzTx-V(1-29)] | 3.45 | 8.90 | 0.296 | 0.76 |  |
| CCCC[C@@H]1NC(=O)[C@H](Cc2c[nH]c3ccccc23)NC(=O)[C@H](CCCCN)NC(=O)[C@H](CCC(N)=O)NC(=O)[C@@H](NC(=O)[C@H](Cc2ccc(O)cc2)NC(=O)[C@@H](N)Cc2c[nH]c3ccccc23)CSSC[C@@H]2NC(=O)[C@@H]3CSSC[C@@H](C(=O)N[C@@H](CCCNC(=N)N)C(=O)N[C@@H](CCCCN)C(=O)N[C@H](C(=O)N[C@H](C(N)=O)[C@@H](C)CC)[C@@H](C)CC)NC(=O)[C@H](Cc4c[nH]c5ccccc45)NC(=O)[C@H](CC(C)C)NC(=O)[C@H](CCCCN)NC(=O)[C@H](CSSC[C@H](NC(=O)[C@H]([C@@H](C)O)NC(=O)[C@H](Cc4c[nH]c5ccccc45)NC1=O)C(=O)N[C@@H](CC(=O)O)C(=O)N[C@@H](CO)C(=O)N[C@@H](CCCCN)C(=O)N[C@@H](CCCNC(=N)N)C(=O)N[C@@H](C)C(=O)N3)NC(=O)[C@H](CCCNC(=N)N)NC(=O)[C@H](CC(C)C)NC(=O)CNC(=O)[C@H](CCC(=O)O)NC2=O [Trp-[Nle6]JzTx-V(1-29)] | 1.34 | 4.07 |  |  | 0.33 |
| CCCC[C@@H]1NC(=O)[C@H](Cc2c[nH]c3ccccc23)NC(=O)[C@H](CCCCN)NC(=O)[C@H](CCC(N)=O)NC(=O)[C@@H](NC(=O)[C@H](Cc2ccc(O)cc2)NC(=O)[C@H](N)CC(C)C)CSSC[C@@H]2NC(=O)[C@@H]3CSSC[C@@H](C(=O)N[C@@H](CCCNC(=N)N)C(=O)N[C@@H](CCCCN)C(=O)N[C@H](C(=O)N[C@H](C(N)=O)[C@@H](C)CC)[C@@H](C)CC)NC(=O)[C@H](Cc4c[nH]c5ccccc45)NC(=O)[C@H](CC(C)C)NC(=O)[C@H](CCCCN)NC(=O)[C@H](CSSC[C@H](NC(=O)[C@H]([C@@H](C)O)NC(=O)[C@H](Cc4c[nH]c5ccccc45)NC1=O)C(=O)N[C@@H](CC(=O)O)C(=O)N[C@@H](CO)C(=O)N[C@@H](CCCCN)C(=O)N[C@@H](CCCNC(=N)N)C(=O)N[C@@H](C)C(=O)N3)NC(=O)[C@H](CCCNC(=N)N)NC(=O)[C@H](CC(C)C)NC(=O)CNC(=O)[C@H](CCC(=O)O)NC2=O [D-Leu-[Nle6]JzTx-V(1-29)] | 12.6 | 84.00 |  |  | 0.15 |
